From US9834521B2, “Choline kinase inhibitors” (ARIAD Pharmaceuticals, Inc., priority 2013, dated 2017)
pIC50: −log10 of the molar value.

Molecular target: T1, truncated form of human Choline kinase α1 that includes residues 75-457 (Homo sapiens, UniProt P35790)
T1 construct: made in house
Experiment: Kinase Assay, coupled (ATP regeneration) LDH/PK assay, NADH absorbance
Format: biochemical
Settings: not given
Description: Absorbance of NADH (340 nm) was measured over 30 min using a SpectraMax M5 (Molecular Devices). Initial reaction velocity (ΔA340/Δt) was calculated and plotted as a function of inhibitor concentration in a 2-fold dilution series. IC50 values were obtained by fitting the relative velocities to a dose-response model.

T1 sequence (P35790 75-457): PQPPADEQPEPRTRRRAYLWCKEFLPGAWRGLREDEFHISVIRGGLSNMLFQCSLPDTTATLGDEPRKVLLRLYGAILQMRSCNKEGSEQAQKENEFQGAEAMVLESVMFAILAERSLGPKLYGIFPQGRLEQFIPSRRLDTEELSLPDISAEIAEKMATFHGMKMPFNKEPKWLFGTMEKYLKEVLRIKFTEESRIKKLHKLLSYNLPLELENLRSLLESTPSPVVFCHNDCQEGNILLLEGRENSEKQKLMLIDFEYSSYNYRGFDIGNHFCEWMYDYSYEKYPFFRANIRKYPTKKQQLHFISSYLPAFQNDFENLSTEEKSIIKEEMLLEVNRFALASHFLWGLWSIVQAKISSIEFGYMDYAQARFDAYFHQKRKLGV

For `CN1CCCN(Cc2ccc(-c3ccc(C(=O)N4CCCC4)cc3)c(C#N)c2)CC1` [Example 26, 4-((4-methyl-1,4-diazepan-1-yl)methyl)-4′-(pyrrolidine-1-carbonyl)-[1,1′-biphenyl]-2-carbonitrile], the pIC50 was > 5.70.

Same assay, conditions: Examples designated with an asterisk (*): version 1 of the Kinase Assay, 200 nM enzyme; read-out: IC50

`CN1CCCN(Cc2ccc(N3CCS(=O)(=O)CC3)cc2)CC1` [Example 145, 4-(4-((4-methyl-1,4-diazepan-1-yl)methyl)phenyl)thiomorpholine 1,1-dioxide] and `CN1CCCN(Cc2ccc(Cn3cncn3)cc2)CC1` [Example 143, 1-(4-((1H-1,2,4-triazol-1-yl)methyl)benzyl)-4-methyl-1,4-diazepane] cannot be ordered by pIC50: > 4.30 for the first, > 4.30 for the second.

`CN1CCCN(Cc2ccc(-c3ccc(C(=O)O)cc3)cc2)CC1` [Example 159, 4′-((4-methyl-1,4-diazepan-1-yl)methyl)-[1,1′-biphenyl]-4-carboxylic acid] and `CN1CCCN(Cc2ccc(-c3ccccn3)cc2)CC1` [Example 141, 1-methyl-4-(4-(pyridin-2-yl)benzyl)-1,4-diazepane] cannot be ordered by pIC50: > 4.30 for the first, > 4.30 for the second.

In the case of `COc1ccc(NCc2ccc(CN3CCCN(C)CC3)cc2)cc1` [Example 151, 4-methoxy-N-(4-((4-methyl-1,4-diazepan-1-yl)methyl)benzyl)aniline], the pIC50 was > 4.30.

Same assay, conditions: Examples not designated with an asterisk; footnote prints version 1 of the Kinase Assay; read-out: IC50

`CN1CCCN(Cc2ccc(-c3ccc(C(=O)N4CCCN(C)CC4)cc3-c3ccc(C#N)cc3)c(C#N)c2)CC1` [Example 68, 4-((4-methyl-1,4-diazepan-1-yl)methyl)-4′-(4-methyl-1,4-diazepane-1-carbonyl)-[1:1′:2′,1″-terphenyl]-2,4″-dicarbonitrile] and `CN1CCCN(Cc2ccc(-c3ccc(C(=O)N4CCCN(C)CC4)cc3-c3ccc([N+](=O)[O-])cc3)c(C#N)c2)CC1` [Example 73, 4-((4-methyl-1,4-diazepan-1-yl)methyl)-4′-(4-methyl-1,4-diazepane-1-carbonyl)-4″-nitro-[1,1′:2′,1″-terphenyl]-2-carbonitrile] cannot be ordered by pIC50: > 6.30 for the first, > 6.30 for the second.

`CC(=O)NCCc1ccc(-c2ccc(CN3CCCN(C)CC3)cc2C#N)cc1` [Example 95, N-(2-(2′-cyano-4′-((4-methyl-1,4-diazepan-1-yl)methyl)-[1,1′-biphenyl]-4-yl)ethyl)acetamide] and `CN1CCCN(Cc2ccc(-c3ccc(CC(N)C(=O)O)cc3)c(C#N)c2)CC1` (stereo not shown) [Example 100, 2-amino-3-(2′-cyano-4′-((4-methyl-1,4-diazepan-1-yl)methyl)-[1,1′-biphenyl]-4-yl)propanoic acid] cannot be ordered by pIC50: > 6.30 for the first, > 6.30 for the second.

`CN1CCCN(Cc2ccc(-c3ccc(/C(N)=N/O)cc3)c(C#N)c2)CC1` [Example 99, (E)-2′-cyano-N′-hydroxy-4′-((4-methyl-1,4-diazepan-1-yl)methyl)-[1,1′-biphenyl]-4-carboximidamide] and `CN1CCCN(Cc2ccc(-c3ccc(N)cc3)c(C#N)c2)CC1` [Example 113, 4′-amino-4-((4-methyl-1,4-diazepan-1-yl)methyl)-[1,1′-biphenyl]-2-carbonitrile] cannot be ordered by pIC50: > 6.30 for the first, > 5.70 for the second.

`CN1CCCN(Cc2ccc(-c3ccc(C(=O)N4CCCN(C)CC4)cc3N(C)C)c(C#N)c2)CC1` [Example 62, 2′-(dimethylamino)-4-((4-methyl-1,4-diazepan-1-yl)methyl)-4′-(4-methyl-1,4-diazepane-1-carbonyl)-[1,1′-biphenyl]-2-carbonitrile] and `COc1cccc(-c2cc(C(=O)N3CCCN(C)CC3)ccc2-c2ccc(CN3CCCN(C)CC3)cc2C#N)c1` [Example 74, 3″-methoxy-4-((4-methyl-1,4-diazepan-1-yl)methyl)-4′-(4-methyl-1,4-diazepane-1-carbonyl)[1,1′:2′,1″-terphenyl]-2-carbonitrile] cannot be ordered by pIC50: > 6.30 for the first, > 6.30 for the second.

`CC(=O)Nc1ccc(-c2ccc(CN3CCCN(C)CC3)cc2C#N)cn1` [Example 102, N-(5-(2-cyano-4-((4-methyl-1,4-diazepan-1-yl)methyl)phenyl)pyridin-2-yl)acetamide] and `CN1CCCN(Cc2ccc(-c3ccc(N)nc3)c(C#N)c2)CC1` [Example 111, 2-(6-aminopyridin-3-yl)-5-((4-methyl-1,4-diazepan-1-yl)methyl)benzonitrile] cannot be ordered by pIC50: > 6.30 for the first, > 6.30 for the second.

`COC(=O)c1ccc(-c2ccc(CN3CCCN(C)CC3)cc2C#N)c(Br)c1` [Example 156, methyl 2-bromo-2′-cyano-4′-((4-methyl-1,4-diazepan-1-yl)methyl)-[1,1′-biphenyl]-4-carboxylate] and `Cc1cc(C#N)ccc1-c1ccc(CN2CCCN(C)CC2)cc1C#N` [Example 121, 2′-methyl-4-((4-methyl-1,4-diazepan-1-yl)methyl)-[1,1′-biphenyl]-2,4′-dicarbonitrile] cannot be ordered by pIC50: > 5.70 for the first, > 5.70 for the second.

`CON(C)C(=O)c1ccc(-c2ccc(CN3CCCN(C)CC3)cc2C#N)cc1` [Example 35, 2′-cyano-N-methoxy-N-methyl-4′-((4-methyl-1,4-diazepan-1-yl)methyl)-[1,1′-biphenyl]-4-carboxamide] and `CN1CCCN(Cc2ccc(-c3ccc(C(=O)N(C)CCO)cc3)c(C#N)c2)CC1` [Example 17, 2′-cyano-N-(2-hydroxyethyl)-N-methyl-4′-((4-methyl-1,4-diazepan-1-yl)methyl)-[1,1′-biphenyl]-4-carboxamide] cannot be ordered by pIC50: > 6.30 for the first, > 6.30 for the second.

`CN1CCCN(Cc2ccc(-c3ccc(C(=O)N4CCC(O)CC4)cc3)c(C#N)c2)CC1` [Example 19, 4′-(4-hydroxypiperidine-1-carbonyl)-4-((4-methyl-1,4-diazepan-1-yl)methyl)-[1,1′-biphenyl]-2-carbonitrile] and `CN1CCCN(Cc2ccc(-c3ccc(C(=O)N4CCCN(C)CC4)cc3)c(F)c2)CC1` [Example 58, (2′-fluoro-4′-((4-methyl-1,4-diazepan-1-yl)methyl)-[1,1′-biphenyl]-4-yl)(4-methyl-1,4-diazepan-1-yl)methanone] cannot be ordered by pIC50: > 6.30 for the first, > 6.30 for the second.

`CN1CCCN(Cc2ccc(-c3ccc(CNCCNC(=O)OC(C)(C)C)cc3)c(C#N)c2)CC1` [Example 10, tert-butyl(2-(((2′-cyano-4′-((4-methyl-1,4-diazepan-1-yl)methyl)-[1,1′-biphenyl]-4-yl)methyl)amino)ethyl)carbamate] and `CN(C)Cc1ccc(-c2ccc(CN3CCCN(C)CC3)cc2C#N)cc1` [Example 12, 4′-((dimethylamino)methyl)-4-((4-methyl-1,4-diazepan-1-yl)methyl)-[1,1′-biphenyl]-2-carbonitrile] cannot be ordered by pIC50: > 6.30 for the first, > 6.30 for the second.

`CN1CCCN(Cc2ccc(-c3ccc(CN4CCCN(C)CC4)c(C#N)c3)cc2)CC1` [Example 155, 4,4′-bis((4-methyl-1,4-diazepan-1-yl)methyl)-[1,1′-biphenyl]-3-carbonitrile] and `CN1CCCN(Cc2ccc(-c3ccc(CCC(=O)O)cc3)cc2)CC1` [Example 132, 3-(4′-((4-methyl-1,4-diazepan-1-yl)methyl)-[1,1′-biphenyl]-4-yl)propanoic acid] cannot be ordered by pIC50: > 6.30 for the first, > 4.30 for the second.

`CN1CCCN(Cc2ccc(-c3cccc4ccccc34)c(C#N)c2)CC1` [Example 125, 5-((4-methyl-1,4-diazepan-1-yl)methyl)-2-(naphthalen-1-yl)benzonitrile] and `CN1CCCN(Cc2ccc(-c3ccc(-c4nnc(N)s4)cc3)cc2)CC1` [Example 116, 5-(4′-((4-methyl-1,4-diazepan-1-yl)methyl)-[1,1′-biphenyl]-4-yl)-1,3,4-thiadiazol-2-amine] cannot be ordered by pIC50: > 4.30 for the first, > 5.70 for the second.
